Columns and labels:
[1] = test system: AHR; assay: Cyp1a1 mRNA induction in TH17cond CD4+ T cells (qPCR); format: cell-based, mouse
Procedure: To activate primary T cells, spleens and/or lymph nodes (LN) were removed, disaggregated and red blood cells lysed. Cells were stimulated with 1 μg/ml of the CD3 monoclonal antibody (2C11) and 2 μg/ml anti-CD28 (37.51; ebiosciences) to trigger the TCR. Naive CD4^+ T cells and 24 h TCR-activated CD4^+ T cells were purified using CD4 isolation kit (EasySep, STEMCELL Technologies). […] Proleukin, Novartis) for a further 3–5 days. To generate TH1s and TH17s, murine CD8^+ T cells were depleted from lymph node preparations using CD8 depletion kit (EasySep, STEMCELL Technologies). […] RnD Systems) and IL-2 (20 ng/ml) and for TH17s; cytokines IL-6 (50 ng/ml, Peprotech), IL-1β (10 ng/ml, Peprotech) and TGFβ (2 ng/ml, Peprotech). TH17s were cultured in IMDM (Gibco). All other cells were cultured in RPMI 1640 containing L-glutamine (Gibco). Culture media was supplemented with 10% FBS (Gibco), 50 μM β-mercaptoethanol (β-ME, Sigma) and penicillin/streptomycin (Gibco). Cells were incubated at 37 °C with 5% CO2 throughout. […] RNA was purified using the RNeasy RNA purification Mini Kit (Qiagen) (Genomic DNA was digested with RNase-free DNase (Qiagen) following manufacturer instructions) and reverse-transcribed using the iScript cDNA synthesis kit (BioRad). Quantitative PCR was performed in 96-well plate format using iQ SYBR Green-based detection (BioRad) on a BioRad iCycler.

[2] = test system: AHR; parameters: method as in PMID 25657351, PMID 29279331; conditions: cited from earlier work
[3] = test system: mTORC1; assay: mTORC1 activity in CTLs after leucine removal and refeeding; format: cell-based, mouse; conditions: CTLs removed from leucine, refed leucine 100uM ± Kyn 100uM
Excerpt: page 13: • We […] would not be able to measure the levels of in vivo ky nurenine uptake with this assay (for the reasons explained above). However, this is a pertinent question, and will relate to the total amount of available kynurenine compared to alternative System L substrates. The detailed micro-environmental metabolomics techniques required to perform this kind of analysis is beyond the scope of this paper, however we have tried to address this point in the discussion. Second, did CD4 T cells (Foxp3-) and Tregs (Foxp3+) from Lm-infected mice also i mport Ky n? […] This, also, is a very interesting aspect, however we feel that it is beyond the scope of this paper. Point 4: Data presented in Figures 4 & 5 show convincingly that SLC7A5 ablation in CD4 T cells abolishes Kyn uptake in CD4 T cells selectively and that imported Kyn triggers AhR signaling in CD4 T cells, respectively. However, no data is presented to address the biological significance of these findings, specifically regarding the reported ability of Kyn to suppress Th1 responses (e.g. IFNg production) or to reinforce Treg-mediated suppression of effector T cells via AhR signaling. […]

[4] = biological target: T1, System L transporter SLC7A5 (Mus musculus, UniProt Q9Z127); assay: Flow cytometry kynurenine uptake assay (450 nm fluorescence) in T cells; format: cell-based; conditions: for IC50: 37 °C; for IC50 / effect on kynurenine transport (450 nm fluorescence): 4 min; for effect on kynurenine transport ex vivo: D7 rLM-infected CD8+ T cells; for effect on kynurenine transport ex vivo / effect on kynurenine transport (450 nm fluorescence): BCH 10 mM, Leu 5 mM, Lys 5 mM; for effect on kynurenine transport (450 nm fluorescence): TCR-stimulated CD8+ T cells or CTLs
T1 construct: endogenous in cells
Excerpt: For cell surface staining, antibodies conjugated to FITC, PE, APC, Alexafluor 647 (A647), APC-efluor780 (APCe780), and PerCPCy5.5 were obtained from either BD Pharmingen, eBioscience or Biolegend. Fc receptors were blocked using Fc Block (BD Pharmingen). Antibody clones used were: CD4 (RM4-5), CD8a (53-6.7), TCRβ (H57-597), CD44 (IM7), CD45.1 (A20), CD45.2 (104) and CD98 (RC388). Cells were fixed using 1% paraformaldehyde. Standard intracellular cytokine staining protocols were followed for IFNγ (clone XMG1.2; Biolegend) staining. Data were acquired on a LSR Fortessa II with DIVA software or a FACSVerse flow cytometer with FACSuite software (BD Biosciences) and analysed using FlowJo software version 9.9.5 (TreeStar).
Start with at least 1 × 10^6 cells per condition, to obtain at least 200,000 events analysed by flow cytometry at the end of the protocol. […] If required, surface cell antibody staining should be performed prior to uptake assay protocol. This may be performed at room temperature or 4 °C, however test samples must be warmed to 37 °C, e.g. in water bath, prior to kynurenine uptake. (As with all multi-parameter flow cytometry, appropriate antibody staining controls must also be performed.) Samples can be fixed immediately after uptake assay by addition of 4% (vol/vol) paraformaldehyde (PFA; to a final concentration of 1%) for 30 min at room temperature.
For kynurenine uptake assay; pre-warm kynurenine (800 μM, in HBSS), BCH (40 mM, in HBSS) and lysine (20 mM, HBSS) and HBSS to 37 °C. After surface antibody staining of samples, resuspend cells in 200 μl warmed HBSS (1–5 × 10^6 cells in FACS tubes, or scale accordingly into plates). Keep cells in water bath at 37 °C. Add 100 μl of HBSS, or BCH or lysine to appropriate samples. Add 100 μl HBSS to no kynurenine controls (final volume 400 μl). Finally, add 100 μl kynurenine to appropriate samples. Stop uptake after 4 min by adding 125 μl 4% PFA for 30 min at room temperature, in the dark. The final concentrations for uptake assay are: 200 μM kynurenine; +/-10 mM BCH; +/-5 mM lysine. After fixation, wash cells twice in PBS/0.5% BSA and resuspend in PBS/0.5% BSA prior to acquisition on flow cytometer. The 405 nm laser and 450/50 BP filter are used for kynurenine fluorescence detection.
To monitor kynurenine uptake in live cells, acquire data on flow cytometer immediately following addition of kynurenine and plot fluorescence against time.

[5] = biological target: T1, System L transporter SLC7A5; assay: Radiolabelled 3H-kynurenine uptake in T cells; format: cell-based; conditions: compared with kynurenine Km ~200 μM
Procedure: To activate primary T cells, spleens and/or lymph nodes (LN) were removed, disaggregated and red blood cells lysed. Cells were stimulated with 1 μg/ml of the CD3 monoclonal antibody (2C11) and 2 μg/ml anti-CD28 (37.51; ebiosciences) to trigger the TCR. Naive CD4^+ T cells and 24 h TCR-activated CD4^+ T cells were purified using CD4 isolation kit (EasySep, STEMCELL Technologies). […] Proleukin, Novartis) for a further 3-5 days. To generate TH1s and TH17s, murine CD8^+ T cells were depleted from lymph node preparations using CD8 depletion kit (EasySep, STEMCELL Technologies). […] RnD Systems) and IL-2 (20 ng/ml) and for TH17s; cytokines IL-6 (50 ng/ml, Peprotech), IL-1β (10 ng/ml, Peprotech) and TGFβ (2 ng/ml, Peprotech). TH17s were cultured in IMDM (Gibco). All other cells were cultured in RPMI 1640 containing L-glutamine (Gibco). Culture media was supplemented with 10% FBS (Gibco), 50 μM β-mercaptoethanol (β-ME, Sigma) and penicillin/streptomycin (Gibco). Cells were incubated at 37 °C with 5% CO2 throughout. […] Cells were pelleted below the oil, the aqueous supernatant solution, followed by the silicon oil/dibutyl phthalate mixture was aspirated, and the cell pellet underneath resuspended in 200 μl NaOH (0.5 M) and β-radioactivity measured by liquid scintillation counting in a Beckman LS 6500 Multi-Purpose Scintillation Counter (Beckman Coulter). […] Where indicated, the sodium free buffer was prepared using TMACl as described in Baird et al.[35] Data are expressed as molecules radiotracer per cell per minute. […] All other chemicals were obtained from Sigma.

T1 sequence (Q9Z127 whole entry): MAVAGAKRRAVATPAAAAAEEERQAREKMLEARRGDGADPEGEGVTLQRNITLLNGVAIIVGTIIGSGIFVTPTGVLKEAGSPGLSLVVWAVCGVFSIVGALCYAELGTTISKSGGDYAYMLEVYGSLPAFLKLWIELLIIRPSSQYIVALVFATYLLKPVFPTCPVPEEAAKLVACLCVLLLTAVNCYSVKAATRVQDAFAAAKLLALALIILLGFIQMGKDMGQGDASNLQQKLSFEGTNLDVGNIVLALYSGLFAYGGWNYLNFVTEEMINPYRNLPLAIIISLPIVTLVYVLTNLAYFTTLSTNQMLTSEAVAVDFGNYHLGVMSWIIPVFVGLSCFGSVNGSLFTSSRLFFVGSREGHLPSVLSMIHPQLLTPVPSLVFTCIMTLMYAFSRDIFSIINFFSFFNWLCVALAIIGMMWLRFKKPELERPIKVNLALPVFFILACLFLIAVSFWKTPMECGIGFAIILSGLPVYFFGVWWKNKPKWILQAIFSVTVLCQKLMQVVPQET
T1 sequence (P10852 whole entry partner): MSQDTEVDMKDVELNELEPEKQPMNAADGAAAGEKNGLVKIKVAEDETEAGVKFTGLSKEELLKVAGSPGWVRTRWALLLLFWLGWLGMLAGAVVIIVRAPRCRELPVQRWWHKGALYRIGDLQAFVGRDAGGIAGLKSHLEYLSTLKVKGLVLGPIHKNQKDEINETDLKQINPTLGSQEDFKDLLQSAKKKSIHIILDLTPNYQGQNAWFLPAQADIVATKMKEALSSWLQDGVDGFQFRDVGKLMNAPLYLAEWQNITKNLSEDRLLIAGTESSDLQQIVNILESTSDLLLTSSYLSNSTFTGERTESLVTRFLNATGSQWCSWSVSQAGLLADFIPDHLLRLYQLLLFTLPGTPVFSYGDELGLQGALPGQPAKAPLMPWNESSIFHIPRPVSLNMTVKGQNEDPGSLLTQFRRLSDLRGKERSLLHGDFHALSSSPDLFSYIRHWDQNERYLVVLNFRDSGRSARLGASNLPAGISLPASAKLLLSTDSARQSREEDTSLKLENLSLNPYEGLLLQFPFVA

Compound: Cc1ccccc1N=Nc1ccc(NC(=O)c2ccnn2C)c(C)c1 [CH223191]
- effect on kynurenine-induced Cyp1A1 mRNA ([1]; D3 TH17cond cells, kynurenine 10 μM 2 h, CH223191 30 μM): completely blocked

Compound: O=Cc1c2[nH]c3ccccc3c2cc2[nH]c3ccccc3c12 [FICZ, 6-formylindolo[3,2-b]carbazole]
- concentrations needed to activate the AHR [2]: pM/nM range
- Cyp1a1 mRNA induction, D3 versus D5 post activation ([1]; TH17cond CD4+ T cells, kynurenine 100 μM or FICZ 300 nM, 2 h): equivalent on D3 and D5

Compound: Clc1cc2c(cc1Cl)Oc1cc(Cl)c(Cl)cc1O2 [TCDD, 2,3,7,8-tetrachlorodibenzo-p-dioxin]
- concentrations needed to activate the AHR [2]: pM/nM range

Compound: CC(C)C[C@H](N)C(=O)O [leucine]
- effect on mTORC1 activity [3]: establishes mTORC1 activity
- IC50 ([4]; CTL): 411 ± 30 µM
- IC50 ([4]; D7 rLM CD8+ effector T cells from spleen, ex vivo): 168 ± 38 µM
- effect on kynurenine transport ex vivo [4]: blocked
- effect on kynurenine transport (450 nm fluorescence) [4]: blocks kynurenine transport to comparable levels as BCH
- Km of other System L substrates relative to Km of kynurenine [5]: ~ 10 fold less

Compound: NCCCC[C@H](N)C(=O)O [lysine]
- effect on kynurenine uptake ([4]; CD3/CD28 activated wild-type T cells in co-culture, 5 mM lysine, BCH): did not inhibit kynurenine uptake
- effect on kynurenine transport ex vivo [4]: not by lysine competition
- effect on kynurenine transport (450 nm fluorescence) [4]: does not affect kynurenine transport

Compound: CSCC[C@H](N)C(=O)O [methionine]
- Km of other System L substrates relative to Km of kynurenine [5]: ~ 10 fold less

Compound: N[C@@H](Cc1c[nH]c2ccccc12)C(=O)O [tryptophan]
- Km of other System L substrates relative to Km of kynurenine [5]: ~ 10 fold less
